According to paper PMC10771296, “Plectasin: from evolution to truncation, expression, and better druggability” (Frontiers in Microbiology, 2023):
In brackets after ≈: the same amount, converted by molar mass. Where a SMILES comes first, the peptide text is derived from it. Bridges are numbered along the chain shown (N, C = ends).

Key:
[1] = test system: ICR mice; assay: In vivo safety: hematological indices; set-up: RDW-CV / MCHC: unit not given here; conditions: 10 mg/kg i.p. for six consecutive days, blood on 7th day
Procedure: (§1) Eight 6-week-old ICR mice were randomly divided into two groups and injected intraperitoneally with Ple-AB (10 mg/kg, body weight) and saline for six consecutive days. […] They were weighed daily, and blood was collected on the 7th day for hematological and biochemical analyses. Simultaneously, the heart, liver, spleen, lungs, and kidneys were collected for tissue fixation and hematoxylin–eosin (HE) staining to observe any pathological changes ([Shishkina et al., 2023]).

[2] = test system: mouse erythrocytes; assay: Hemolysis; type: cell-based; conditions: 8% mouse erythrocyte suspension, 37°C
Procedure: The hemolytic properties of the peptides were evaluated by measuring the amount of hemoglobin released from fresh mouse erythrocytes ([Yang et al., 2019]). Blood was collected from mice in sodium heparin anticoagulation tubes, and the erythrocytes were washed three or more times with 0.9% saline to obtain an 8% erythrocyte suspension. The erythrocyte suspension was mixed with an equal volume of Ple-AB at concentrations of 0.5–256 μg/mL, incubated at 37°C, and the absorbance values were measured at 540 nm. PBS and 0.1% Triton X-100 were used as the blank (A0) and positive controls (A100), respectively. Hemolysis (%) = [(A – A0)/(A100 – A0)] × 100, and three replicates were conducted for each case.

[3] = test system: Streptococcus; assay: MIC, summary over the panel; type: cell-based; conditions: including S. agalactiae ATCC13813, S. dysgalactiae CVCC3938, S. agalactiae CAU-FRI-2022-02
Procedure: (§2) The minimum inhibitory concentration (MIC) of the peptides was assayed using the micro broth dilution method, which is an important indicator of the antibacterial activity of the AMPs ([Liu et al., 2021]). […] The MIC was defined as the lowest concentration of ones at which no visible bacterial growth was observed. All the assays were repeated thrice.

[4] = test system: gram-negative bacteria; assay: MIC, summary over the panel; type: cell-based; conditions: summary of the panel
Procedure: as §2

[5] = test system: ICR mice; assay: In vivo safety: body weight and HE histology; conditions: 10 mg/kg i.p. for six consecutive days
Procedure: as §1

[6] = test system: S. aureus ATCC43300; assay: Stability in simulated (artificial) gastric fluid read out as MIC; type: in vitro ADME, Staphylococcus aureus
Procedure: The stability of Ple-AB was assessed based on its antibacterial activity against S. aureus ATCC43300. Temperature stability was determined by incubation at 20, 40, 60, 80, and 100°C for 1 h ([Li et al., 2020]). The pH stability was determined by incubation in buffers with a pH of 2, 4, 6, 8, and 10 for 4 h ([Yang et al., 2017]). The peptides were incubated with different concentrations of metal ions, serum, artificial gastric fluid, and simulated intestinal fluid to assess their stability in the blood and intestines ([Lyu et al., 2019]). All the treatments were performed in triplicates.

[7] = test system: S. aureus ATCC43300; assay: MIC/MBC, micro broth dilution; type: cell-based, Staphylococcus aureus
Procedure: as §2

[8] = test system: S. aureus CVCC546; assay: MIC/MBC, micro broth dilution; type: cell-based, Staphylococcus aureus
Procedure: as §2

[9] = test system: S. aureus ATCC25923; assay: MIC/MBC, micro broth dilution; type: cell-based, Staphylococcus aureus
Procedure: as §2

[10] = test system: S. aureus E48; assay: MIC/MBC, micro broth dilution; type: cell-based, Staphylococcus aureus
Procedure: as §2

[11] = micro broth dilution, 1 × 10^5 CFU/mL, repeated thrice

## CC[C@H](C)[C@@H]1NC(=O)[C@H](CO)NC(=O)[C@H](CCCCN)NC(=O)[C@@H]2CSSC[C@@H](C(=O)N[C@@H](Cc3ccc(O)cc3)C(=O)O)NC(=O)[C@H](CCCCN)NC(=O)[C@@H]3CSSC[C@H](NC(=O)[C@H](CCC(N)=O)NC(=O)[C@H](CCSC)NC(=O)[C@H](CCC(=O)O)NC(=O)[C@H](CC(=O)O)NC(=O)[C@H](Cc4c[nH]c5ccccc45)NC(=O)[C@@H]4CCCN4C(=O)[C@@H](NC(=O)CNC(=O)[C@H](Cc4ccccc4)NC(=O)CN)CSSC[C@H](NC(=O)[C@H](Cc4ccc(O)cc4)NC(=O)CNC(=O)CNC(=O)[C@H](CCCCN)NC(=O)[C@H](Cc4ccc(O)cc4)NC(=O)CNC(=O)[C@H](CCCCN)NC1=O)C(=O)N[C@@H](C)C(=O)N[C@@H](CCCCN)C(=O)NCC(=O)NCC(=O)N[C@@H](Cc1ccccc1)C(=O)N[C@@H](C(C)C)C(=O)N3)C(=O)N[C@@H](Cc1c[nH]cn1)C(=O)N[C@@H](CC(N)=O)C(=O)N[C@@H](Cc1c[nH]cn1)C(=O)N2 [Ple-AB] (H-GFGCPWDEMQCHNHCKSIKGYKGGYCAKGGFVCKCY-OH; disulfide 4-26, 11-33, 15-35; N-terminus and C-terminus assumed)
[1]
  BASO: 0.09 ± 0.027 10^9/L
  BASO %: 1.09 ± 0.34%
  EO: 0.19 ± 0.106 10^9/L
  EO %: 2.33 ± 1.24%
  HBG: 128 ± 12 g/L
  HCT %: 41.3 ± 2.4%
  LYM: 5.89 ± 0.585 10^9/L
  LYM %: 74.8 ± 3.02%
  MCH: 13.48 ± 0.67 pg
  MCHC: 32.86 ± 1.73
  MCV: 41.73 ± 1.17 fL
  MONO: 0.24 ± 0.066 10^9/L
  MONO %: 3 ± 0.49%
  MPV: 6.63 ± 0.57 fL
  NEUT: 1.49 ± 0.354 10^9/L
  NEUT %: 18.78 ± 1.66%
  PCT %: 0.02 ± 0.01%
  PDW %: 15.85 ± 0.75%
  PLCR %: 15.35 ± 3.65%
  PLT: 782.3 ± 48.25 10^9/L
  RBC: 9.44 ± 0.82 10^12/L
  RDW-CV: 18.58 ± 1.97
  RDW-SD %: 44.55 ± 3.65%
  WBC: 7.89 ± 0.94 10^9/L
  Whole blood cell profiles versus control group: not significantly different
[2]; all concentrations 0.5–256 μg/mL, A540, three replicates
  Hemolytic rate: less than 2%
[2]; highest concentration, 256 μg/mL, A540
  Hemolytic rate: 1.07%
[3]
  MICs, range over Streptococcus: 2 to 4 µg/mL
[4]
  Activity against gram-negative bacteria: inactive
[5]; one week after injection, vs saline
  Histological morphology of heart, liver, spleen, lungs, kidneys (HE staining): no differences in histological morphology
[5]; weighed daily
  Body weight change: slight tendency to lose weight on the second day after the injection
[6]; Simulated Gastric Fluid (pepsin), 1-2 h, triplicates
  MIC after Simulated Gastric Fluid: 16 µg/mL (≈ 4 µM)
[6]; artificial gastric juice (pepsin), 2 h
  MIC after artificial gastric juice: 16 µg/mL (≈ 4 µM)
[7]; S. aureus ATCC43300
  MBC: 32 µg/mL (≈ 8 µM)
[7]; [11]
  MIC: 16 µg/mL (≈ 4 µM)
[7]; untreated control of the stability test, triplicates
  MIC: 16 µg/mL (≈ 4 µM)
[8]; S. aureus CVCC546
  MBC: 16 µg/mL (≈ 4 µM)
[8]; [11]
  MIC: 8 µg/mL (≈ 2 µM)
[9]; S. aureus ATCC25923
  MBC: 64 µg/mL (≈ 16 µM)
[9]; [11]
  MIC: 16 µg/mL (≈ 4 µM)
[10]; S. aureus E48
  MBC: 16 µg/mL (≈ 4 µM)
[10]; bovine clinical strain, micro broth dilution, 1 × 10^5 CFU/mL, repeated thrice
  MIC: 4 µg/mL (≈ 1 µM)
